Test results taken from US9297810B2, “CD40L-binding agent based platelet aggregation assays” (BIOGEN IDEC MA INC., priority 2005, dated 2016).
“And” between values parts separate entries of the source, which are not always exact repeats. Equal values may be shown once. “Also recorded” adds a separate entry of the source.

What was measured:
[1] = test system: ADP-Activated Platelets / resting platelets (platelet rich plasma); assay: Platelet aggregation assay (PRP, Biodata PAP-4 aggregation profiler); type: cell-based, human; details: for effect on aggregation of resting platelets: no ADP; for effect on the aggregation of ADP-activated platelets: wide range of ADP concentrations
Method: All platelets used in the in vitro platelet aggregation experiments were isolated from healthy human volunteers who denied ingesting aspirin or aspirin containing compounds within 10 days. Aggregation assays were performed on PRP. Approximately 50 mL of whole blood was collected in aliquots in 4.5 mL vacutainer tubes containing 0.5 mL of 3.8% sodium citrate. PRP was prepared by centrifuging the anticoagulated blood at 200 g for 10 minutes and harvesting the supernatant.
The Biodata 4-channel platelet aggregation profiler (PAP-4; Biodata Corp., Hatboro, Pa.) was blanked using a cuvette containing only platelet poor plasma (PPP). A 350 μL aliquot of PRP, containing approximately 2 to 5×10^8/mL platelets, was added to a cuvette containing a stir bar. Anti-CD40L antibody, human IgG, normal human serum, CD40-Fc, or anti-hFc were added in a total volume of 100 μL. The loaded cuvette was placed in the machine and the reaction components mixed prior to the addition of ADP.
Aggregation was initiated with the addition of sub-optimal concentration of ADP in 50 μL (final concentration varies for each individual sample). The aggregation profiler has four ports, which can run simultaneously. An aggregation tracing was generated for each sample for four minutes following the addition of ADP. At the end of the tracing, the instrument calculates the percentage of aggregation by comparing the transmission of light through the sample to the transmission of light through the PPP blank. A titration was performed at the beginning of each experiment, and subsequent runs were performed at a suboptimal ADP concentration.

[2] = molecular target: T1, CD40L on the platelet surface (Homo sapiens, UniProt P29965); assay: Binding of biotin-conjugated anti-CD40L antibody to platelets (western blotting with HRP-streptavidin); details: data not shown
T1 construct: Platelets were incubated with a biotin-conjugated anti-CD40L antibody to determine whether CD40L is present on the surface of platelets; endogenous in cells
T1 sequence (P29965 1-261): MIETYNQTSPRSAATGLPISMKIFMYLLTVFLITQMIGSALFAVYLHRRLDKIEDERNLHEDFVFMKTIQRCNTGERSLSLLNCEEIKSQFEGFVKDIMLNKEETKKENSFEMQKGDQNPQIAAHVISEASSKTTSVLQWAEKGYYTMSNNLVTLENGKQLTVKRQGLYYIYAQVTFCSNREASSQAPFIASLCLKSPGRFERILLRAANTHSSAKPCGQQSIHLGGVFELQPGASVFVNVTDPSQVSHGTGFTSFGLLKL

[3] = result in words, listed as Anti-CD40L antibody

BG9588: Research-grade anti-CD40L antibody prepared at Biogen; table column BG9588 corresponds to it
effect on aggregation of cross-linking of antibody bound to CD40L on activated platelets ([1]; 2 μg/mL, cross-linked with anti-hFc (Table 5)): may enhance aggregation under limited conditions | effect on platelet aggregation of anti-CD40L antibody cross-linked by sCD40L ([1]; FIG. 3, 233 μg/mL antibody and 30 μg/mL sCD40L, PRP of ten healthy donors, sub-optimal ADP): affected; also recorded: enhanced aggregation occurred with platelets isolated from some, but not all, healthy donors; also recorded: induced | effect on platelet aggregation together with sCD40L ([1]; FIG. 4, 200 μg/mL with sCD40L 30 μg/mL, 0.75 μM ADP, one donor): specifically enhanced | % of Aggregation ([1]; Table 1, 5 μg/mL, ADP 0.00 μM (resting platelets)): 11% | % of Aggregation ([1]; Table 1, 5 μg/mL, ADP 0.37 μM): 15% | % of Aggregation ([1]; Table 1, 5 μg/mL, ADP 0.70 μM): 24% | % of Aggregation ([1]; Table 1, 5 μg/mL, ADP 2.00 μM): 21% | % of Aggregation ([1]; Table 1, 5 μg/mL, ADP 6.70 μM): 71% | % of Aggregation ([1]; Table 1, 5 μg/mL, ADP 20.00 μM, PRP, four-minute tracing): 72% | % of Aggregation ([1]; Table 2, 5 μg/mL, ADP 0.37 μM): 10% | % of Aggregation ([1]; Table 2, 5 μg/mL, ADP 0.70 μM): 10% | % of Aggregation ([1]; Table 2, 5 μg/mL, ADP 2.00 μM): 12% | % of Aggregation ([1]; Table 2, 5 μg/mL, ADP 6.70 μM): 78% | % of Aggregation ([1]; Table 2, 5 μg/mL, ADP 20.00 μM): 80% | % of Aggregation ([1]; Table 3, 5 μg/mL, ADP 0.00 μM (resting platelets)): 3% | % of Aggregation ([1]; Table 3, 5 μg/mL, ADP 0.30 μM): 10% | % of Aggregation ([1]; Table 3, 5 μg/mL, ADP 0.60 μM): 10% | % of Aggregation ([1]; Table 3, 5 μg/mL, ADP 1.25 μM): 12% | % of Aggregation ([1]; Table 3, 5 μg/mL, ADP 2.50 μM): 62% | % of Aggregation ([1]; Table 3, 5 μg/mL, ADP 5.00 μM): 67% | % of Aggregation ([1]; Table 3, 5 μg/mL, ADP 10.00 μM): 69% | % of Aggregation ([1]; Table 3, 5 μg/mL, ADP 20.00 μM): 68% | % of Aggregation ([1]; Table 4, 1.25 μg/mL, ADP 0.00 μM): 3% | % of Aggregation ([1]; Table 4, 2.50 μg/mL, ADP 0.00 μM): 5% | % of Aggregation ([1]; Table 4, 5.00 μg/mL, ADP 0.00 μM): 3% | % of Aggregation ([1]; Table 4, 10.00 μg/mL, ADP 0.00 μM): 3% | % of Aggregation ([1]; Table 4, 20.00 μg/mL, ADP 0.00 μM): 3% | % of Aggregation ([1]; Table 5, BG9588 2 μg/mL + anti-hFc 2.22 μg/mL, ADP 0.0 μM): 3% | % of Aggregation ([1]; Table 5, BG9588 2 μg/mL + anti-hFc 2.22 μg/mL, ADP 0.5 μM): 8% | % of Aggregation ([1]; Table 5, BG9588 2 μg/mL + anti-hFc 2.22 μg/mL, ADP 1.0 μM): 76% | % of Aggregation ([1]; Table 5, BG9588 2 μg/mL + anti-hFc 6.66 μg/mL, ADP 0.0 μM): 3% | % of Aggregation ([1]; Table 5, BG9588 2 μg/mL + anti-hFc 6.66 μg/mL, ADP 0.5 μM): 8% | % of Aggregation ([1]; Table 5, BG9588 2 μg/mL + anti-hFc 6.66 μg/mL, ADP 1.0 μM): 84% | % of Aggregation ([1]; Table 5, BG9588 2 μg/mL + anti-hFc 20.00 μg/mL, ADP 0.0 μM): 3% and 4% | % of Aggregation ([1]; Table 5, BG9588 2 μg/mL + anti-hFc 20.00 μg/mL, ADP 0.5 μM): 8% | % of Aggregation ([1]; Table 5, BG9588 2 μg/mL + anti-hFc 20.00 μg/mL, ADP 1.0 μM): 83% | % of Aggregation ([1]; Table 5, BG9588 2 μg/mL alone, ADP 0.0 μM): 3% | % of Aggregation ([1]; Table 6, resting platelets, BG9588 2 μg/mL + serum 0.00032x): 6% | % of Aggregation ([1]; Table 6, resting platelets, BG9588 2 μg/mL + serum 0.0016x): 6% | % of Aggregation ([1]; Table 6, resting platelets, BG9588 2 μg/mL + serum 0.008x): 7% | % of Aggregation ([1]; Table 6, resting platelets, BG9588 2 μg/mL + serum 0.04x): 6% | % of Aggregation ([1]; Table 6, resting platelets, BG9588 2 μg/mL + serum 0.2x): 6% | % of Aggregation ([1]; Table 6, resting platelets, BG9588 2 μg/mL + serum 1.0x): 9% | effect on platelet aggregation of cross-linked anti-CD40L antibody ([1]; cross-linked with 2.22 μg/mL anti-hFc, ADP 1.0 μM (Table 5 lines 109 and 110)): increased aggregation | effect on platelet aggregation of cross-linked anti-CD40L antibody ([1]; cross-linked with 20 μg/mL or 6.66 μg/mL anti-hFc): did not affect | enhancing effect on platelet aggregation of cross-linked anti-CD40L antibody ([1]; cross-linked with anti-hFc, lower concentration of ADP): not observed | effect on aggregation of resting platelets [1, 3]: do not induce | effect on aggregation of resting platelets ([1]; result in words, listed as anti-CD40L antibody): not affected | effect on platelet aggregation ([1]; result in words): does not affect | effect on the aggregation of ADP-activated platelets [1, 3]: do not induce the aggregation of resting platelets or affect; also recorded: do not affect | effect on the aggregation of ADP-activated platelets ([1]; result in words, listed as Research-grade anti-CD40L antibody): did not affect | effect on platelets in the presence of normal human serum ([1]; with normal human serum (Table 6)): not affected

B1: sCD40L: recombinant soluble CD40 ligand prepared at Biogen, cross-linking agent (protein, UniProt P29965 47-261, looked up)
extracellular domain: HRRLDKIEDERNLHEDFVFMKTIQRCNTGERSLSLLNCEEIKSQFEGFVKDIMLNKEETKKENSFEMQKGDQNPQIAAHVISEASSKTTSVLQWAEKGYYTMSNNLVTLENGKQLTVKRQGLYYIYAQVTFCSNREASSQAPFIASLCLKSPGRFERILLRAANTHSSAKPCGQQSIHLGGVFELQPGASVFVNVTDPSQVSHGTGFTSFGLLKL
modifications: extracellular domain
notes: recombinant soluble CD40 ligand prepared at Biogen, cross-linking agent
effect of preincubation on binding of biotin-conjugated anti-CD40L antibody to activated platelets [2]: inhibited binding
